Assay results reported in PubChem BioAssay AID1195 (EPA DSSTox, 2008).

Tested on: human maximum recommended daily dose, FDA database
Assay: DSSTox (FDAMDD) FDA Maximum (Recommended) Daily Dose Database
Conditions: active compounds read low
Procedure, shortened: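 MRDD values come from clinical trials with daily oral dosing, usually for 3–12 months, for the average adult, in mg/day converted to mg/kg-bw/day assuming 60 kg. Antineoplastic mg/m2 doses are divided by 37. Activity score maps log10(1/MRDD mmol) onto 1–100.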

[1] = TherapeuticCategory: sedative, hypnotic
[2] = TherapeuticCategory: antibacterial
[3] = TherapeuticCategory: antineoplastic
[4] = TherapeuticCategory: diagnostic aid
[5] = TherapeuticCategory: anticholinergic
[6] = TherapeuticCategory: anxiolytic
[7] = TherapeuticCategory: glucocorticoid
[8] = TherapeuticCategory: skeletal muscle relaxant

## COc1ccc(OC)c(C(O)C(C)N)c1 (centres undefined)
TherapeuticCategory: adrenergic
  maximum recommended daily dose (mmol/kg-bw/day): 0.00158

## NC(CO)C(=O)NNCc1ccc(O)c(O)c1O (centres undefined)
TherapeuticCategory: antiparkinsonian
  maximum recommended daily dose (mmol/kg-bw/day): 0.0129

## CCCC(C)C1(CC)C(=O)NC(=O)NC1=O (centres undefined)
[1]
  maximum recommended daily dose (mmol/kg-bw/day): 0.0147

## CCOc1ccc2ccccc2c1C(=O)N[C@@H]1C(=O)N2[C@@H]1SC(C)(C)[C@@H]2C(=O)O
[2]
  maximum recommended daily dose (mmol/kg-bw/day): 0.241

## COC(=O)CCc1ccc(OCC(O)CNC(C)C)cc1 (centres undefined)
TherapeuticCategory: antiarrhythmic
  maximum recommended daily dose (mmol/kg-bw/day): 0.000677

## CC[C@H](C)C(=O)O[C@H]1C[C@H](O)C=C2C=C[C@H](C)[C@H](CC[C@@H](O)C[C@@H](O)CC(=O)O)[C@H]21
TherapeuticCategory: antihyperlipoproteinemic
  maximum recommended daily dose (mmol/kg-bw/day): 0.00157

## S=P(N1CC1)(N1CC1)N1CC1
[3]
  maximum recommended daily dose (mmol/kg-bw/day): 0.00211

## C[C@H](O)C(=O)Nc1c(I)c(C(=O)NC(CO)CO)c(I)c(C(=O)NC(CO)CO)c1I
[4]
  maximum recommended daily dose (mmol/kg-bw/day): 0.129

## CCC(=O)c1ccc2c(c1)N(CC(C)N(C)C)c1ccccc1S2 (centres undefined)
[1]
  maximum recommended daily dose (mmol/kg-bw/day): 0.00245

## COc1cc([C@@H]2Oc3cc([C@H]4Oc5cc(O)cc(O)c5C(=O)[C@@H]4O)ccc3O[C@H]2CO)ccc1O
TherapeuticCategory: treatment of liver disfunction
  maximum recommended daily dose (mmol/kg-bw/day): 0.0145

## CC1CC(OC(=O)C(O)c2ccccc2)CC(C)(C)C1 (centres undefined)
TherapeuticCategory: vasodilator
  maximum recommended daily dose (mmol/kg-bw/day): 0.0966

## C[N+](C)(C)CC(=O)[O-]
TherapeuticCategory: hepatoprotectant
  maximum recommended daily dose (mmol/kg-bw/day): 0.0711

## NCCCNCCSP(=O)(O)O
TherapeuticCategory: mucolytic
  maximum recommended daily dose (mmol/kg-bw/day): 0.115

## CCC(C)C(C(=O)OC1CCN(C)CC1)c1ccccc1 (centres undefined)
[5]
  maximum recommended daily dose (mmol/kg-bw/day): 0.00173

## COc1cc([C@@H]2c3cc4c(cc3C(O[C@@H]3O[C@@H]5COC(c6cccs6)O[C@H]5[C@H](O)[C@H]3O)C3COC(=O)[C@@H]32)OCO4)cc(OC)c1O (some centres undefined)
[3]
  maximum recommended daily dose (mmol/kg-bw/day): 0.0107

## CCC1C(C)=NN=C(c2ccc(OC)c(OC)c2)c2cc(OC)c(OC)cc21 (centres undefined)
[6]
  maximum recommended daily dose (mmol/kg-bw/day): 0.00654

## CC(=O)OCC(CCn1cnc2cnc(N)nc21)COC(C)=O
TherapeuticCategory: antiviral
  maximum recommended daily dose (mmol/kg-bw/day): 0.0778

## CC(=O)OCC(=O)[C@@]1(O)CC[C@H]2[C@@H]3C[C@H](C)C4=CC(=O)C=C[C@]4(C)[C@H]3[C@@H](O)C[C@@]21C
[7]
  maximum recommended daily dose (mmol/kg-bw/day): 0.01

## CC1(C)C(\C=C/C=C\C=C/C=C2/N(CCCCS(=O)(=O)O)c3ccc4ccccc4c3C2(C)C)=[N+](CCCCS(=O)(=O)[O-])c2ccc3ccccc3c21
[4]
  maximum recommended daily dose (mmol/kg-bw/day): 0.000645

## O=C1CN(/N=C/c2ccc([N+](=O)[O-])o2)C(=O)N1
[2]
  maximum recommended daily dose (mmol/kg-bw/day): 0.028

## OC[C@H]1O[C@](O)(CO)[C@@H](O)[C@@H]1O
TherapeuticCategory: fluid and nutrient replenisher, ferric form as hematinic
  maximum recommended daily dose (mmol/kg-bw/day): 2.31

## COc1cnc(NS(=O)(=O)c2ccc(N)cc2)nc1
[2]
  maximum recommended daily dose (mmol/kg-bw/day): 0.0892

## O=C1NCC2(CCN(CCc3ccccc3)CC2)O1
TherapeuticCategory: bronchodilator, alpha adrenergic blocker
  maximum recommended daily dose (mmol/kg-bw/day): 0.0307

## CN[C@@H](C)[C@H](O)c1ccccc1
TherapeuticCategory: bronchodilator
  maximum recommended daily dose (mmol/kg-bw/day): 0.0101

## O=C1CN(/N=C/c2ccc(-c3ccc([N+](=O)[O-])cc3)o2)C(=O)N1
[8]
  maximum recommended daily dose (mmol/kg-bw/day): 0.0212

## O=C1CC2(CCCC2)CC(=O)N1CCCCN1CCN(c2ncccn2)CC1
[6]
  maximum recommended daily dose (mmol/kg-bw/day): 0.00259

## CCC1(c2ccc(N)cc2)CCC(=O)NC1=O (centres undefined)
TherapeuticCategory: anticonvulsant
  maximum recommended daily dose (mmol/kg-bw/day): 0.0719

## OC[C@H]1OC(O)[C@H](O)[C@@H](O)[C@H]1O (some centres undefined)
TherapeuticCategory: diagnostic aid, hepatic function
  maximum recommended daily dose (mmol/kg-bw/day): 0.555

## C[C@]12C=CC(=O)C=C1CC[C@@H]1[C@@H]2[C@@H](O)C[C@@]2(C)[C@H]1CC[C@]2(O)C(=O)COC(=O)CCCc1ccc(N(CCCl)CCCl)cc1
[3]
  maximum recommended daily dose (mmol/kg-bw/day): 0.00515

## NCCCCCC(=O)O
TherapeuticCategory: hemostatic
  maximum recommended daily dose (mmol/kg-bw/day): 1.52

## Nc1nc(=S)c2[nH]cnc2[nH]1
[3]
  maximum recommended daily dose (mmol/kg-bw/day): 0.0324

## CN1C(=O)CN=C(c2ccccc2)c2cc([N+](=O)[O-])ccc21
TherapeuticCategory: anticonvulsant, skeletal muscle relaxant
  maximum recommended daily dose (mmol/kg-bw/day): 0.000282

## CC(=O)OCC1=C(C(=O)O)N2C(=O)[C@@H](NC(=O)Cc3cccs3)[C@H]2SC1
[2]
  maximum recommended daily dose (mmol/kg-bw/day): 0.252

## COc1c(C)c2c(c(O)c1C/C=C(\C)CCC(=O)OCCN1CCOCC1)C(=O)OC2
[3]
  maximum recommended daily dose (mmol/kg-bw/day): 0.277

## Cc1cc(=O)n(-c2ccccc2)n1C (tested in a mixture with another compound)
[1]
  maximum recommended daily dose (mmol/kg-bw/day): 0.0626

## COc1ccccc1OCCNCC(O)COc1cccc2[nH]c3ccccc3c12 (centres undefined)
TherapeuticCategory: antihypertensive, antianginal
  maximum recommended daily dose (mmol/kg-bw/day): 0.00103

## Nc1ccn([C@H]2CC[C@@H](CO)O2)c(=O)n1
TherapeuticCategory: antiviral
  maximum recommended daily dose (mmol/kg-bw/day): 0.000178

## CCCCC(=O)OCC(=O)[C@@]1(O)[C@H](C)C[C@H]2[C@@H]3CCC4=CC(=O)C=C[C@]4(C)[C@@]3(F)[C@@H](O)C[C@@]21C
TherapeuticCategory: glucocorticoid, anti inflammatory
  maximum recommended daily dose (mmol/kg-bw/day): 0.000315

## CCCCC(=O)O[C@]1(C(=O)COC(C)=O)CC[C@H]2[C@@H]3CCC4=CC(=O)C=C[C@]4(C)[C@H]3[C@@H](O)C[C@@]21C
[7]
  maximum recommended daily dose (mmol/kg-bw/day): 0.00684

## CC[C@]1(O)CC[C@H]2[C@@H]3CCC4=CC(=O)CC[C@@H]4[C@H]3CC[C@@]21C
TherapeuticCategory: androgen
  maximum recommended daily dose (mmol/kg-bw/day): 0.00165

## C[C@H]1CCC[C@H](O)CCCCCc2cc(O)cc(O)c2C(=O)O1
TherapeuticCategory: anabolic
  maximum recommended daily dose (mmol/kg-bw/day): 1.55e-06

## CCC[C@@H]1O[C@@H]2C[C@H]3[C@@H]4CCC5=CC(=O)C=C[C@]5(C)[C@H]4[C@@H](O)C[C@]3(C)[C@]2(C(=O)CO)O1
TherapeuticCategory: anti inflammatory
  maximum recommended daily dose (mmol/kg-bw/day): 1.01e-05

## CCC(C)CON=O (centres undefined)
TherapeuticCategory: none
  maximum recommended daily dose (mmol/kg-bw/day): 0.0427

## CCc1cc2c(s1)-n1c(C)nnc1CN=C2c1ccccc1Cl
[6]
  maximum recommended daily dose (mmol/kg-bw/day): 0.000195

## CC#C[C@]1(O)CC[C@H]2[C@@H]3CCC4=CC(=O)CCC4=C3[C@@H](c3ccc(N(C)C)cc3)C[C@@]21C
TherapeuticCategory: abortifacient
  maximum recommended daily dose (mmol/kg-bw/day): 0.0233

## C=C1/C(=C\C=C2/CCC[C@]3(C)[C@@H]([C@H](C)CCCC(C)(C)O)CC[C@@H]23)C[C@@H](O)C[C@@H]1O
TherapeuticCategory: calcium regulator
  maximum recommended daily dose (mmol/kg-bw/day): 1.2e-07

## CC(CC1c2ccccc2CCc2ccccc21)CN(C)C (centres undefined)
TherapeuticCategory: antidepressant
  maximum recommended daily dose (mmol/kg-bw/day): 0.00852

## CCCCCCC(=O)OCCN1CCN(CCCN2c3ccccc3Sc3ccc(C(F)(F)F)cc32)CC1
TherapeuticCategory: antispsychotic
  maximum recommended daily dose (mmol/kg-bw/day): 0.000606

## N[C@@H](C(=O)N[C@@H]1C(=O)N2C(C(=O)O)=C(Cl)CC[C@H]12)c1ccccc1
[2]
  maximum recommended daily dose (mmol/kg-bw/day): 0.0181

## O=C(OC[C@H]1O[C@](O)(COC(=O)c2cccnc2)[C@@H](OC(=O)c2cccnc2)[C@@H]1OC(=O)c1cccnc1)c1cccnc1
TherapeuticCategory: peripheral vasodilator
  maximum recommended daily dose (mmol/kg-bw/day): 0.111

## Cc1ccc(O)c([C@H](CCN(C(C)C)C(C)C)c2ccccc2)c1
TherapeuticCategory: cholinergic (acetyl-choline) receptor blockers
  maximum recommended daily dose (mmol/kg-bw/day): 0.0246

## Cc1ccc(/C(=C\CN2CCCC2)c2cccc(/C=C/C(=O)O)n2)cc1
TherapeuticCategory: antihistaminic
  maximum recommended daily dose (mmol/kg-bw/day): 0.00153

## O=C1C[C@@H]2OCC=C3CN4CC[C@]56c7ccccc7N1[C@H]5[C@H]2[C@H]3C[C@H]46
TherapeuticCategory: rat poison
  maximum recommended daily dose (mmol/kg-bw/day): 0.00209

## Cc1cc(C)cc(OCC2CNC(=O)O2)c1 (centres undefined)
[8]
  maximum recommended daily dose (mmol/kg-bw/day): 0.484

## COc1cc(C)c(/C=C/C(C)=C/C=C/C(C)=C/C(=O)O)c(C)c1C
TherapeuticCategory: antipsoriatic
  maximum recommended daily dose (mmol/kg-bw/day): 0.00383

## Cc1nccn1CC1CCc2c(c3ccccc3n2C)C1=O (centres undefined)
TherapeuticCategory: antiemetic
  maximum recommended daily dose (mmol/kg-bw/day): 0.00136

## O=P(O)(O)OCC(O)CO (centres undefined)
TherapeuticCategory: none
  maximum recommended daily dose (mmol/kg-bw/day): 0.388

## CCOC(=O)C1(c2ccccc2)CCN(CCc2ccc(N)cc2)CC1
TherapeuticCategory: narcotic analgesic
  maximum recommended daily dose (mmol/kg-bw/day): 0.00945

## O=C(O)c1c(Cl)c(Cl)c(Cl)c(Cl)c1-c1c2cc(I)c(=O)c(I)c-2oc2c(I)c(O)c(I)cc12
[4]
  maximum recommended daily dose (mmol/kg-bw/day): 0.00197

## CC/C=C(\C)C1(CC)C(=O)NC(=O)NC1=O
[1]
  maximum recommended daily dose (mmol/kg-bw/day): 0.0148

## CN(C)[C@@H]1C(=O)C(C(N)=O)=C(O)[C@@]2(O)C(=O)C3=C(O)c4c(O)cccc4[C@@](C)(O)[C@H]3[C@H](O)[C@@H]12
[2]
  maximum recommended daily dose (mmol/kg-bw/day): 0.0671

## CC(CN1CC(=O)NC(=O)C1)N1CC(=O)NC(=O)C1 (centres undefined)
[3]
  maximum recommended daily dose (mmol/kg-bw/day): 0.0155

## CO/N=C(/C(=O)N[C@@H]1C(=O)N2C(C(=O)OC(C)OC(=O)C(C)(C)OC)=C(COC(N)=O)CS[C@H]12)c1ccco1 (some centres undefined)
[2]
  maximum recommended daily dose (mmol/kg-bw/day): 0.0294

## CCC1(c2ccccc2)C(=O)NC(=O)NC1=O
TherapeuticCategory: anticonvulsant, sedative, hypnotic
  maximum recommended daily dose (mmol/kg-bw/day): 0.0093

## CC(=O)c1ccc(S(=O)(=O)NC(=O)NC2CCCCC2)cc1
TherapeuticCategory: antidiabetic
  maximum recommended daily dose (mmol/kg-bw/day): 0.0771

## CN1[C@@H]2CC[C@H]1CC(OC(c1ccccc1)c1ccccc1)C2 (some centres undefined)
[5]
  maximum recommended daily dose (mmol/kg-bw/day): 0.000325

## CCCCCCc1ccc(O)cc1O
TherapeuticCategory: antihelmintic, antiseptic
  maximum recommended daily dose (mmol/kg-bw/day): 0.0858

## O=C(O)P(=O)(O)O
TherapeuticCategory: antiviral
  maximum recommended daily dose (mmol/kg-bw/day): 0.625

## O=C1CN2CCOC2(c2ccccc2Cl)c2cc(Cl)ccc2N1 (centres undefined)
[6]
  maximum recommended daily dose (mmol/kg-bw/day): 0.000573

## CCN(CC)C(=O)c1ccc(O)c(OC)c1
TherapeuticCategory: central and respiratory stimulant
  maximum recommended daily dose (mmol/kg-bw/day): 0.0187

## Cc1nnc(NS(=O)(=O)c2ccc(N)cc2)s1
[2]
  maximum recommended daily dose (mmol/kg-bw/day): 0.247

## CCCCOc1ccc(C[N+]2(C)[C@@H]3CC[C@H]2CC(OC(=O)[C@H](CO)c2ccccc2)C3)cc1 (some centres undefined)
TherapeuticCategory: antispasmotic, anticholinergic
  maximum recommended daily dose (mmol/kg-bw/day): 0.000915

## NC(=O)c1cccnc1
TherapeuticCategory: vitamin
  maximum recommended daily dose (mmol/kg-bw/day): 0.0682

## CC(c1cc2ccccc2s1)N(O)C(N)=O (centres undefined)
TherapeuticCategory: antiasthmatic, anti inflammatry
  maximum recommended daily dose (mmol/kg-bw/day): 0.169
